Reference: patent US12404241B2 (Celgene Corporation, priority 2018, dated 2025)
Read-outs that look alike come from different tables or passages of the source.

Molecular target: T1, AR (Homo sapiens, UniProt P10275)
T1 construct: endogenous in cells; host or cells: VCaP cells
T1 sequence (P10275 1-920): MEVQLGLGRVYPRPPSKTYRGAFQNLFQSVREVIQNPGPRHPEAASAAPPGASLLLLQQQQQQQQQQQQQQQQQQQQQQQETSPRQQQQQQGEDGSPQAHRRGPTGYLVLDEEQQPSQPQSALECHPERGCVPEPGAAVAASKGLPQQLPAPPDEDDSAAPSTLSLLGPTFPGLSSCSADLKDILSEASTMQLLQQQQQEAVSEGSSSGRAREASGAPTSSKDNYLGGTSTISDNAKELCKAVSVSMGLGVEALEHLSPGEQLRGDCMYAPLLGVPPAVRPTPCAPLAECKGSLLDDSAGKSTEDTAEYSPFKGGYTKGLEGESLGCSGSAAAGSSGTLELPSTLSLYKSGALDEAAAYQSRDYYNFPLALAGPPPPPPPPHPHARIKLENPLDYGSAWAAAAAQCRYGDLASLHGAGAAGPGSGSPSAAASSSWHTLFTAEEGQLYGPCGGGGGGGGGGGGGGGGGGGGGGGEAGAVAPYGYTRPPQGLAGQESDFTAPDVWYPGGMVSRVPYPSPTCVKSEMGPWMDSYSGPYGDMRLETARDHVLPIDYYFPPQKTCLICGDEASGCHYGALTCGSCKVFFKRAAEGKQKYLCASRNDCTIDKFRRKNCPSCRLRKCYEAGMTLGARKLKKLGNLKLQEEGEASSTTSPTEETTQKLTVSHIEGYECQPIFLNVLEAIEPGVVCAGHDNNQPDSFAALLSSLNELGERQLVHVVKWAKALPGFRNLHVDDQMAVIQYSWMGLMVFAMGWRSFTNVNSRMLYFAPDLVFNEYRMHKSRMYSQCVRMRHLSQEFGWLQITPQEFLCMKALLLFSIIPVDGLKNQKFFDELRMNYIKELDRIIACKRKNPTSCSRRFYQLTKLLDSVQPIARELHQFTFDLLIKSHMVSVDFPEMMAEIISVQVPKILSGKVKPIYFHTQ
Test: VCAP AR Degradation Assay
Format: cell-based
Conditions: for Y (AR degradation efficiency, % of DMSO control): class symbols *; for DC50: class symbols A-C
Outline: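 AR protein in lysates quantified by sandwich ELISA after 24 h exposure of VCaP cells at 37 °C to 10 concentrations (1:3 steps, 5 μM top, final). Four-parameter logistic fit of percent-of-DMSO levels gave DC50 (50% degradation), EC50 and minimal AR level Y.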

Row | SMILES | Y (AR degradation efficiency, % of DMSO control) | DC50 (read-out: DC50) | DC50
1 | CC(C)c1cc(N2C(=S)N(c3ccc(C#N)c(C(F)(F)F)c3)C(=O)C2(C)C)cnc1OCCN1C[C@@H](C)N(CC(=O)Nc2cc(Cl)cc(NC3CCC(=O)NC3=O)c2)C[C@H]1C (stereo partly drawn) [Example 214, N-(3-chloro-5-(2,6-dioxopiperidin-3-ylamino)phenyl)-2-((2R,5R)-4-(2-(5-(3-(4-cyano-3-(trifluoromethyl)phenyl)-5,5-dimethyl-4-oxo-2-thioxoimidazolidin-1-yl)-3-isopropylpyridin-2-yloxy)ethyl)-2,5-dimethylpiperazin-1-yl)acetamide] | ** (25%<Y<=35%) | 0.1 to 0.5 µM | –
2 | CC(C)c1cc(N2C(=S)N(c3ccc(C#N)c(C(F)(F)F)c3)C(=O)C2(C)C)cnc1OCCN1C[C@@H](C)N(CC(=O)Nc2cc(C#N)cc(NC3CCC(=O)NC3=O)c2)C[C@H]1C (stereo partly drawn) [Example 232, 2-((2R,5R)-4-(2-(5-(3-(4-cyano-3-(trifluoromethyl)phenyl)-5,5-dimethyl-4-oxo-2-thioxoimidazolidin-1-yl)-3-isopropylpyridin-2-yloxy)ethyl)-2,5-dimethylpiperazin-1-yl)-N-(3-cyano-5-(2,6-dioxopiperidin-3-ylamino)phenyl)acetamide] | * (0<Y<=25%) | 0.1 to 0.5 µM | –
3 | CCc1cc(N2C(=S)N(c3cnc(C#N)c(C(F)(F)F)c3)C(=O)C2(C)C)ccc1OCCN1CCN(CC(=O)Nc2cc(NC3CCC(=O)NC3=O)ccc2Cl)CC1 (single isomer, unassigned) [Example 47] | * (0<Y<=25%) | < 0.1 µM | –
4 | CC(C)c1cc(N2C(=S)N(c3cnc(C#N)c(C(F)(F)F)c3)C(=O)C23CCC3)ccc1OCCN1C[C@@H](C)N(CC(=O)Nc2cc(C#N)cc(NC3CCC(=O)NC3=O)c2)[C@@H](C)C1 (stereo partly drawn) [Example 210, N-(3-cyano-5-(2,6-dioxopiperidin-3-ylamino)phenyl)-2-((2S,6R)-4-(2-(4-(7-(6-cyano-5-(trifluoromethyl)pyridin-3-yl)-8-oxo-6-thioxo-5,7-diazaspiro[3.4]octan-5-yl)-2-isopropylphenoxy)ethyl)-2,6-dimethylpiperazin-1-yl)acetamide] | * (0<Y<=25%) | < 0.1 µM | –
5 | CC(C)c1cc(N2C(=S)N(c3cnc(C#N)c(C(F)(F)F)c3)C(=O)C23CCC3)ccc1OCCN1C[C@@H](C)N(CC(=O)Nc2cc(NC3CCC(=O)NC3=O)ccc2F)[C@@H](C)C1 (stereo partly drawn) [Example 209, 2-((2S,6R)-4-(2-(4-(7-(6-cyano-5-(trifluoromethyl)pyridin-3-yl)-8-oxo-6-thioxo-5,7-diazaspiro[3.4]octan-5-yl)-2-isopropylphenoxy)ethyl)-2,6-dimethylpiperazin-1-yl)-N-(5-(2,6-dioxopiperidin-3-ylamino)-2-fluorophenyl)acetamide] | ** (25%<Y<=35%) | 0.1 to 0.5 µM | –
6 | CCc1cc(N2C(=S)N(c3cnc(C#N)c(C(F)(F)F)c3)C(=O)C23CCC3)ccc1OCCN1CC2CCC(C1)N2CC(=O)Nc1cccc(NC2CCC(=O)NC2=O)c1 (stereo not drawn) [Example 171, 2-(3-(2-(4-(7-(6-cyano-5-(trifluoromethyl)pyridin-3-yl)-8-oxo-6-thioxo-5,7-diazaspiro[3.4]octan-5-yl)-2-ethylphenoxy)ethyl)-3,8-diazabicyclo[3.2.1]octan-8-yl)-N-(3-(2,6-dioxopiperidin-3-ylamino)phenyl)acetamide] | * (0<Y<=25%) | – | < 0.1 µM
7 | CCc1cc(N2C(=S)N(c3cnc(C#N)c(C(F)(F)F)c3)C(=O)C2(C)C)ccc1OCCN1CCN(CC(=O)Nc2cc(Cl)cc(NC3CCC(=O)NC3=O)c2)[C@@H](C)C1 (stereo partly drawn) [Example 131, N-(3-chloro-5-(2,6-dioxopiperidin-3-ylamino)phenyl)-2-((S)-4-(2-(4-(3-(6-cyano-5-(trifluoromethyl)pyridin-3-yl)-5,5-dimethyl-4-oxo-2-thioxoimidazolidin-1-yl)-2-ethylphenoxy)ethyl)-2-methylpiperazin-1-yl)acetamide] | * (0<Y<=25%) | < 0.1 µM | –
8 | C[C@@H]1CN(CCOc2ccc(N3C(=S)N(c4ccc(C#N)c(C(F)(F)F)c4)C(=O)C3(C)C)cc2CCF)CCN1CC(=O)Nc1cc(Cl)cc(NC2CCC(=O)NC2=O)c1 (stereo partly drawn) [Example 135, N-(3-chloro-5-(2,6-dioxopiperidin-3-ylamino)phenyl)-2-((R)-4-(2-(4-(3-(4-cyano-3-(trifluoromethyl)phenyl)-5,5-dimethyl-4-oxo-2-thioxoimidazolidin-1-yl)-2-(2-fluoroethyl)phenoxy)ethyl)-2-methylpiperazin-1-yl)acetamide] | * (0<Y<=25%) | < 0.1 µM | –
9 | CC(C)c1cc(N2C(=S)N(c3ccc(C#N)c(C(F)(F)F)c3)C(=O)C2(C)C)ccc1OCCN1C[C@@H](C)N(CC(=O)Nc2cccc(NC3CCC(=O)NC3=O)c2)C[C@H]1C (stereo partly drawn) [Example 193, 2-((2R,5R)-4-(2-(4-(3-(4-cyano-3-(trifluoromethyl)phenyl)-5,5-dimethyl-4-oxo-2-thioxoimidazolidin-1-yl)-2-isopropylphenoxy)ethyl)-2,5-dimethylpiperazin-1-yl)-N-(3-(2,6-dioxopiperidin-3-ylamino)phenyl)acetamide] | ** (25%<Y<=35%) | 0.1 to 0.5 µM | –
10 | C[C@@H]1CN(CCOc2ccc(N3C(=S)N(c4ccc(C#N)c(C(F)(F)F)c4)C(=O)C34CCC4)cc2C2CC2)C[C@H](C)N1CC(=O)Nc1cccc(NC2CCC(=O)NC2=O)c1 (stereo partly drawn) [Example 225, 2-((2R,6S)-4-(2-(4-(7-(4-cyano-3-(trifluoromethyl)phenyl)-8-oxo-6-thioxo-5,7-diazaspiro[3.4]octan-5-yl)-2-cyclopropylphenoxy)ethyl)-2,6-dimethylpiperazin-1-yl)-N-(3-(2,6-dioxopiperidin-3-ylamino)phenyl)acetamide] | * (0<Y<=25%) | < 0.1 µM | –
11 | CC(C)c1cc(N2C(=S)N(c3ccc(C#N)c(Cl)c3)C(=O)C2(C)C)ccc1OCCN1C[C@@H](C)N(CC(=O)Nc2cc(NC3CCC(=O)NC3=O)ccc2F)[C@@H](C)C1 (stereo partly drawn) [Example 222, 2-((2S,6R)-4-(2-(4-(3-(3-chloro-4-cyanophenyl)-5,5-dimethyl-4-oxo-2-thioxoimidazolidin-1-yl)-2-isopropylphenoxy)ethyl)-2,6-dimethylpiperazin-1-yl)-N-(5-(2,6-dioxopiperidin-3-ylamino)-2-fluorophenyl)acetamide] | * (0<Y<=25%) | 0.1 to 0.5 µM | –
12 | CCc1cc(N2C(=S)N(c3ccc(C#N)c(C(F)(F)F)c3)C(=O)C2(C)C)ccc1OCCN1C[C@@H](C)N(CC(=O)Nc2cccc(NC3CCC(=O)NC3=O)c2)C[C@H]1C (stereo partly drawn) [Example 127, 2-((2R,5R)-4-(2-(4-(3-(4-cyano-3-(trifluoromethyl)phenyl)-5,5-dimethyl-4-oxo-2-thioxoimidazolidin-1-yl)-2-ethylphenoxy)ethyl)-2,5-dimethylpiperazin-1-yl)-N-(3-(2,6-dioxopiperidin-3-ylamino)phenyl)acetamide] | * (0<Y<=25%) | < 0.1 µM | –
